Reference: patent publication US20230302022A1, “PREVENTING OR MITIGATING CHEMOTHERAPY INDUCED ALOPECIA USING VITAMIN D” (priority 2016, published 2023)

How the values were obtained:
HEKa cells [1] = test: Real-time PCR Neuroscience Ion Channels and Transporters array, calcitriol-treated HEKa cells; type: cell-based, human; conditions: 0.1 μg/mL calcitriol, three independent experiments; for KCNB2 mRNA Regulation Pattern: until 24 hours
Experimental: (§1) The PCR array analysis utilized two groups of genes—those related to Heat Shock Proteins (SABiosciences), and those related to Neuroscience Ion Channels and Transporters (SABioscience). Cell culture: Primary human epidermal keratinocytes (HEKa) were maintained in Epilife Medium (Cascade Biologics, Inc., Portland OR) along with Human Keratinocyte Growth Supplement (Cascade Biologics, Inc., Portland OR). […] D3 treatment of HEKa cells: […] Vehicle control group of cells were treated with 5 mL media containing 1 μL of ethanol. Cells were harvested 3, 6, 16, 24, 48, or 72 hours after the start of the treatment. RNA isolation: Cells were lysed for RNA isolation at different treatment times using the RNeasy Mini kit (Qiagen, Inc., Valencia CA) following the manufacturer's instructions. RNA was quantified by measuring optical density at 260 nm. First Strand Synthesis: […] Real-time PCR: Products from the first strand synthesis were diluted with water, mixed with the SYBR green master mix (SABiosciences., Frederick MD) and loaded onto PCR arrays. Real time PCR was run on the PCR Arrays (Heat Shock Protein Arrays, and Neuroscience and Ion Channel Arrays) (SABiosciences, Frederick MD) on a Biorad CFX96. Data analyses were performed using the PCR array data analysis software available on the SABiosciences website.

C57BL/6 mice = conditions: cited from earlier work
HEKa cells [2] = test: Real-time PCR Heat Shock Protein array, calcitriol-treated HEKa cells; type: cell-based, human; conditions: 0.1 μg/mL calcitriol, two independent experiments
Experimental: as §1

[3] = test system: Sprague-Dawley or Long Evans rats; test: CIA in 5-day-old Sprague-Dawley or Long Evans rats, calcitriol 1, 2 or 3 μg/mL; type: in vivo, rat

C=C1/C(=C\C=C2/CCC[C@]3(C)[C@@H]([C@H](C)CCCC(C)(C)O)CC[C@@H]23)C[C@@H](O)C[C@@H]1O [Calcitriol, (5Z,7E)-9,10-secocholesta-5,7.10(19Hriene-1 a,33.25-triol]
SLC1A1 mRNA Regulation Pattern (HEKa cells [1]; at 16 hrs): upregulated at | KCNN4 mRNA Regulation Pattern (HEKa cells [1]; at 48 hours): upregulated at 48 | KCNB2 mRNA Regulation Pattern (HEKa cells [1]): upregulated | KCNB2 mRNA Regulation Pattern (HEKa cells [1]; listed as Vitamin D3): upregulated until | follicular apoptosis induced by cyclophosphamide (C57BL/6 mice; C57BL/6 mice, topical): significantly diminish the degree of follicular apoptosis | prevention of cyclophosphamide-induced alopecia (C57BL/6 mice; female C57BL/6 adolescent mice): failed to demonstrate efficacy | regrowth of pigmented hair shafts (C57BL/6 mice; female C57BL/6 adolescent mice): significantly accelerated, enhanced, and quantitatively improved | DNAJC6 mRNA Regulation Pattern (HEKa cells [2]): Downregulated | HSF4 mRNA Regulation Pattern (HEKa cells [2]): Upregulated at 48 hours | HSPA2 mRNA Regulation Pattern (HEKa cells [2]): Upregulated at 48 hours | HSPB1 mRNA Regulation Pattern (HEKa cells [2]): Down regulated at 48 hours | location of hair growth ([3]; 1 μg/mL): limited to the treated area | location of hair growth ([3]; 3 μg/mL): also observed on the dorsal region | protection from CIA ([3]; 6-hour exposure): complete protection | protection from CIA ([3]; 1.5 hour exposure): no protection
